In PMC10507793, “Discovery and computational studies of piperidine/piperazine-based compounds endowed with sigma receptor affinity” (RSC Medicinal Chemistry, 2023):
Entries after “also recorded” stand apart in the source; their conditions may differ.

Tests used:
S1R [1] = conditions: co-crystallized ligand; no reference given; read-out: KiS1R; cited from earlier work
S2R = biological target: T1, S2R (Rattus norvegicus, UniProt Q5U3Y7); assay: S2R radioligand binding assay with [3H]DTG; conditions: for Ki: read-out: Ki ± SD S2R, rat liver homogenates, [3H]DTG, (+)-pentazocine as S1R masking agent, mean ± SD of at least two experiments in duplicate; for binding to S2R (in words): radioligand binding
T1 sequence (Q5U3Y7 1-176): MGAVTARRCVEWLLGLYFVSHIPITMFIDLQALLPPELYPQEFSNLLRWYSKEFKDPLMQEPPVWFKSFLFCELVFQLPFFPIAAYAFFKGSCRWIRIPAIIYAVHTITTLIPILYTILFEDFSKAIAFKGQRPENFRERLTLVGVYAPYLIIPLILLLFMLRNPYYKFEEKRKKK

S1R [2] = biological target: T2, S1R (Rattus norvegicus, UniProt Q9R0C9); assay: S1R radioligand binding assay with [3H](+)-pentazocine; conditions: for Ki: read-out: Ki ± SD S1R, rat liver homogenates, [3H](+)pentazocine, mean ± SD of at least two experiments in duplicate; for KiS2R/KiS1R ratio: selectivity over S2R; for binding to S1R (in words): radioligand binding
S1R [3] = biological target: T2, S1R; assay: S1R functional assay (phenytoin method, [3H](+)-pentazocine displacement); format: binding; set-up: liver homogenates from male Sprague Dawley rats; from tissue; host or cells: rat liver homogenate (male Sprague Dawley); conditions: rat liver; for ratio of Ki without phenytoin/with phenytoin: agonist if ratio >1, antagonist if ≤1
Method: Phenytoin is an allosteric modulator for the S1R, and it differentially modulates the affinity of S1R ligands on the basis of their agonist or antagonist profile.[22,23]
The experiments were performed one time in the presence of phenytoin and one time without phenytoin. […] The incubation of samples lasts 120 min at 37 °C. Unlabeled (+)-pentazocine (10 μM) was used to measure non-specific binding.
GraphPad Prism® 7.0 (GraphPad Software, San Diego, CA, USA) program was used to calculate the Ki values that are given as mean value ± SD from at least two independent experiments performed in duplicate.

T2 sequence (Q9R0C9 whole entry): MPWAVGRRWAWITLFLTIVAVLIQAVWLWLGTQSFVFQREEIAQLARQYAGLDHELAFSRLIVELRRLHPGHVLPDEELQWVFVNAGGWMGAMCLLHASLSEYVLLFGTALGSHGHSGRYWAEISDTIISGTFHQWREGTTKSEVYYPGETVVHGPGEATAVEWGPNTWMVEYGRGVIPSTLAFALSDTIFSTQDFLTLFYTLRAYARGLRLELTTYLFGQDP

SMILES	Ki (S2R) [nM]	Ki (S1R [2]) [nM]	other results
O=C(NC1CCN(Cc2ccccc2)CC1)c1ccc(I)cc1 [4-IBP]	–	–	Ki (S1R [1]): 1.7 nM
O=C(CN1CCC(Cc2ccccc2)CC1)N1CCN(c2ccccc2)CC1 [Compound 1, 2-[4-(benzyl)-1-piperidin-1-yl]-1-4-(4-phenylpiperazin-1-yl)ethanone]	104 ± 15	3.2 ± 0.7	KiS2R/KiS1R ratio (S1R [2]): 33; S1R functional profile (S1R [3]; phenytoin assay): S1R agonist; ratio of Ki without phenytoin/with phenytoin (S1R [3]): 1.8
O=C(CN1CCC(Cc2ccccc2)CC1)N1CCN(c2ccc(O)cc2)CC1 [Compound 2]	1200 ± 226	24 ± 5	KiS2R/KiS1R ratio (S1R [2]): 50
O=C(CCN1CCC(Cc2ccccc2)CC1)N1CCN(c2ccccc2)CC1 [Compound 3]	234 ± 43	8.9 ± 1.3	KiS2R/KiS1R ratio (S1R [2]): 26
O=C(CCN1CCC(Cc2ccccc2)CC1)N1CCN(c2ccc(O)cc2)CC1 [Compound 4]	1000 ± 203	328 ± 58	–
O=C(CCN1CCC(Cc2ccc(F)cc2)CC1)N1CCN(c2ccc(O)cc2)CC1 [Compound 5]	610 ± 146	434 ± 47	–
O=C(c1cc2ccccc2s1)N1CCN(Cc2ccc(F)cc2)CC1 [Compound 6]	> 10000	82 ± 18	–
O=C(c1cc2ccccc2o1)N1CCN(Cc2ccc(F)cc2)CC1 [Compound 7]	> 10000	132 ± 27	–
Cc1ccc(C(=O)N2CCN(Cc3ccc(F)cc3)CC2)o1 [Compound 8]	> 10000	214 ± 29	–
O=C(c1ccc([N+](=O)[O-])s1)N1CCN(Cc2ccc(F)cc2)CC1 [Compound 9]	> 10000	309 ± 55	–
O=C(Cc1ccccc1Br)N1CCN(Cc2ccc(F)cc2)CC1 [Compound 10]	> 10000	366 ± 80	–
O=C(C(c1ccccc1)c1ccccc1)N1CCN(Cc2ccc(F)cc2)CC1 [Compound 11]	> 10000	390 ± 77	–
O=C(c1ccccc1)N1CCN(c2ccc(O)cc2)CC1 [Compound 12]	> 10000	> 10000	binding to S2R (in words) (S2R): failed to bind; also recorded: did not bind; binding to S1R (in words) (S1R [2]): failed to bind; also recorded: did not bind
O=C(c1ccc(-c2ccccc2)cc1)N1CCN(c2ccc(O)cc2)CC1 [Compound 13]	> 10000	> 10000	binding to S2R (in words) (S2R): failed to bind; also recorded: did not bind; binding to S1R (in words) (S1R [2]): failed to bind; also recorded: did not bind
C=CCN1CC[C@]2(C)c3cc(O)ccc3C[C@H]1[C@H]2C [SKF-10 047, reference compound]	–	–	ratio of Ki without phenytoin/with phenytoin (S1R [3]): 3.2
